This is an account of results in patent publication US20180369203A1, “METHODS OF TREATING CANCER BY ADMINISTERING A MEK INHIBITOR IN COMBINATION WITH A PROTEASOME INHIBITOR” (The Jackson Laboratory, priority 2015, published 2018).

In test [1] the test system is A2058 cells. Put plainly: Ubiquitination proteomics (UbiScan, LC-MS/MS) of A2058 cells. Format: cell-based, human. Particulars: 20 nM AZD6244, 8 hrs vs DMSO. On the procedure: (A) GFP and GFP-GR plasmids were co-transfected into HEK293T cells followed by treatments with 20 nM AZD6244, 20 μM U0126, or 200 nM 17-DMAG for 4 hr. (B) GFP-GR plasmids were co-transfected into HEK293T cells with HA-Ub-K48 plasmids, which encode a mutant ubiquitin that can be conjugated to protein substrates only via lysine 48. Following treatments with 20 nM AZD6244 or 200 nM 17-DMAG for 4 hr, GFP-GR proteins were precipitated and ubiquitination was detected using anti-HA antibodies. (C) Denatured firefly luciferases were incubated with lysates of A2058 cells treated with DMSO or 20 nM AZD6244 (mean±SD, n=4, ANOVA). (D) A2058 cells were treated with 20 nM AZD6244, and ubiquitinated proteins were detected in both detergent-soluble and -insoluble fractions using Lys48-specific ubiquitin antibodies. […] (G) Experimental procedures of MS-based quantitation of ubiquitinated peptides, two technical replicates per treatment. […] (Q) Endogenous RPL15 and RPL3 proteins were detected in A2058 cells treated with 20 nM AZD6244 alone or co-treated with 500 nM MG132. (R) Endogenous RPL15 and RPL3 proteins were detected in A2058 cells stably expressing LacZ or HSF1^S326D with AZD6244 treatment. […]
A2058 cells were grown in 150 mm culture dishes and treated with DMSO or 20 nM AZD6244 for 8 hrs. […] Two technical replicates were analyzed for each treatment.

Test [2] deals with A2058 cells. Put plainly: Experimental melanoma metastasis, i.v. luciferase-expressing A2058 cells in NOD/SCID mice. Format: in vivo. The following applies: n=10 per group. The method, then:
FIGS. 6A-N show combined MEK and proteasome inhibition exerts potent tumor-suppressive effects. (A) After treatments with 20 nM AZD6244, 100 nM Bortezomib, or both for 24 hr, viable cells were quantitated by CellTiter® Blue (mean±SD, n=6, ANOVA). (B and C) 1×10^6 A2058 cells were s.c. injected into NOD/SCID mice. After 7 days, mice were treated with DMSO, 5 mg/Kg AZD6244, 0.5 mg/Kg Bortezomib, or the combination via i.p. injection three times a week. Tumor volumes were measured using a caliper weekly (mean±SEM, ANOVA). Tumor growth curves were fitted to exponential growth models to derive tumor-doubling time (DT). Kaplan-Meier survival curve was plotted for each group (Log-rank test). (D) Proteins were detected by immunoblotting, 3 tumors per group. (E) Tumor lysates were used to quantitate AOs, 5 tumors per group (mean±SD, n=3, ANOVA). (F) Tumor lysates were used to seed Aβ1-42 peptides, 5 tumors per group (mean±SD, n=3, ANOVA). (G-H) Tumor sections were stained with CR, 5 tumors per group. […] Total CR fluorescence in each field was quantitated using ImageJ and normalized against total nuclei (median, n=50, ANOVA). […] Body weights were monitored weekly (mean±SD, n=10, ANOVA). […]
A2058 cells were s.c. injected into the left flanks of 9-week-old female NOD.CB17-Prkdc/J (NOD/SCID) mice (The Jackson Laboratory). […] Tumor volumes were calculated following the formula 4/3πR^3. […]

`Cn1cnc2c(F)c(Nc3ccc(Br)cc3Cl)c(C(=O)NOCCO)cc21` [AZD6244, selumetinib]: in test [1], the “increase in ubiquitination of RPL3” value was 13.7 fold and the “increase in ubiquitination of TOR1AIP2” value was found to be 61.0 fold. The “mice with luminescence detected by in vivo imaging” value in test [2] was determined as 40%.
